How the values were obtained:
CDK2/Cyclin E1 = target: T1, CDK2/Cyclin E1 (Homo sapiens, UniProt P24941); experiment: Caliper Assay (LabChip EZ Reader mobility shift assay), inhibition of CDK2/Cyclin E1 activity; format: biochemical; settings: 2.5 nM CDK2/Cyclin E1(14-475), 100 μM ATP, 30 min preincubation; read-out: Caliper Assay (CDK2/CCNE1): IC50
T1 construct: purchased 14-475
Outline: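 Compounds were preincubated 30 min with CDK2/Cyclin E1(14-475), then run for 100 min with 2.5 nM enzyme, 100 μM ATP and 1.5 μM 5-FAM-QSPKKG peptide in HEPES pH 7.5 (final). Reactions were EDTA-stopped and substrate-to-product conversion read by mobility shift. IC50 came from a four-parameter fit.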

Kuramochi cells = experiment: IncuCyte Kuramochi Assay (cell proliferation); format: cell-based; settings: 72 h, Kuramochi cells labeled with mApple-H2B, cell count, read-out: IncuCyte - Kuramochi RB-WT: IC50
Outline: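 Cells imaged at 0 and 72 h after compound treatment (10 points, ½ log dilution, 20 μM top), with fluorescent nuclei counted. Fold change in count was normalized to DMSO wells and fitted to dose-response curves to give GI50.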

Structure (SMILES)	IC50 (CDK2/Cyclin E1)	IC50 (Kuramochi cells)
O=C(c1cncs1)N1CC(c2nc3cc(Oc4ccccc4)ccc3o2)C2(C1)CN(C(=O)[C@H]1CC1(F)F)C2 (stereo partly drawn) [I-145, (2-((R)-2,2-difluorocyclopropane-1-carbonyl)-8-(5-phenoxybenzo[d]oxazol-2-yl)-2,6-diazaspiro[3.4]octan-6-yl)(thiazol-5-yl)methanone]	> 10 µM	> 10 µM
O=C(C1CNC1)N1CC(c2nnc(C(F)(F)c3ccc(Cl)c(Cl)c3)o2)C2(C1)CN(C(=O)[C@H]1CC1(F)F)C2 (stereo partly drawn) [I-147]	> 100 µM	> 10 µM
O=C(c1nncs1)N1CC(c2nnc(C(F)(F)c3ccc(Cl)c(Cl)c3)o2)C2(C1)CN(C(=O)[C@H]1CC1(F)F)C2 (stereo partly drawn) [I-149]	> 10 µM	> 10 µM
O=C(C1CCNCC1)N1CC(c2nnc(C(F)(F)c3ccc(Cl)c(Cl)c3)o2)C2(C1)CN(C(=O)[C@H]1CC1(F)F)C2 (stereo partly drawn) [I-150, (8-(5-((3,4-dichlorophenyl)difluoromethyl)-1,3,4-oxadiazol-2-yl)-2-((R)-2,2-difluorocyclopropane-1-carbonyl)-2,6-diazaspiro[3.4]octan-6-yl)(piperidin-4-yl)methanone]	> 10 µM	> 10 µM
O=C(c1noc2cc(Cl)ccc12)N1CC(c2nnc(C(F)(F)c3ccc(Cl)c(Cl)c3)o2)C2(C1)CN(C(=O)[C@H]1CC1(F)F)C2 (stereo partly drawn) [I-152]	> 10 µM	> 10 µM
O=C(c1cncs1)N1CC(c2nnc(C(F)(F)c3ccc(Cl)c(Cl)c3)o2)C2(C1)CN(C1CCOC1)C2 (stereo not drawn) [I-154, (8-(5-((3,4-dichlorophenyl)difluoromethyl)-1,3,4-oxadiazol-2-yl)-2-(tetrahydrofuran-3-yl)-2,6-diazaspiro[3.4]octan-6-yl)(thiazol-5-yl)methanone]	> 10 µM	> 10 µM
O=C(c1cncs1)N1CC(c2nnc(C(F)(F)c3ccc(Cl)c(Cl)c3)o2)C2(C1)CN(C(=O)[C@H]1CCCO1)C2 (stereo partly drawn) [I-157]	1 to 10 µM	> 10 µM
O=C(C1CCOCC1)N1CC(c2nnc(C(F)(F)c3ccc(Cl)c(Cl)c3)o2)C2(C1)CN(C(=O)[C@H]1CC1(F)F)C2 (stereo partly drawn) [I-158]	> 10 µM	> 10 µM
CC(C)(C#N)C(=O)N1CC2(CN(Cc3cncs3)CC2c2nnc(C(F)(F)c3ccc(Cl)c(Cl)c3)o2)C1 (stereo not drawn) [I-159, 3-(8-(5-((3,4-dichlorophenyl)difluoromethyl)-1,3,4-oxadiazol-2-yl)-6-(thiazol-5-ylmethyl)-2,6-diazaspiro[3.4]octan-2-yl)-2,2-dimethyl-3-oxopropanenitrile]	> 10 µM	> 10 µM
O=C(C#CCO)N1CC(c2nnc(C(F)(F)c3ccc(Cl)c(Cl)c3)o2)C2(C1)CN(C(=O)[C@H]1CC1(F)F)C2 (stereo partly drawn) [I-160]	> 10 µM	> 10 µM

Second part, led by results:

IC50 (CDK2/Cyclin E1)	Structure (SMILES)	IC50 (Kuramochi cells)
> 100 µM	CC(C)(C#N)C(=O)N1CC2(CN(Cc3cnccn3)CC2c2nnc(C(F)(F)c3ccc(Cl)c(Cl)c3)o2)C1 (stereo not drawn) [I-146]	> 10 µM
> 10 µM	O=C([C@H]1CC1(F)F)N1CC2(C1)CN(C(=O)N1CCOCC1)CC2c1nnc(C(F)(F)c2ccc(Cl)c(Cl)c2)o1 (stereo partly drawn) [I-148, (8-(5-((3,4-dichlorophenyl)difluoromethyl)-1,3,4-oxadiazol-2-yl)-2-((R)-2,2-difluorocyclopropane-1-carbonyl)-2,6-diazaspiro[3.4]octan-6-yl)(morpholino)methanone]	> 10 µM
> 10 µM	O=C(C1COC1)N1CC(c2nnc(C(F)(F)c3ccc(Cl)c(Cl)c3)o2)C2(C1)CN(C(=O)[C@H]1CC1(F)F)C2 (stereo partly drawn) [I-153]	> 10 µM
> 10 µM	O=C(c1ccn[nH]1)N1CC(c2nnc(C(F)(F)c3ccc(Cl)c(Cl)c3)o2)C2(C1)CN(C(=O)[C@H]1CC1(F)F)C2 (stereo partly drawn) [I-155]	> 10 µM
> 10 µM	O=C(c1noc2ccccc12)N1CC(c2nnc(C(F)(F)c3ccc(Cl)c(Cl)c3)o2)C2(C1)CN(C(=O)[C@H]1CC1(F)F)C2 (stereo partly drawn) [I-156, benzo[d]isoxazol-3-yl(8-(5-((3,4-dichlorophenyl)difluoromethyl)-1,3,4-oxadiazol-2-yl)-2-((R)-2,2-difluorocyclopropane-1-carbonyl)-2,6-diazaspiro[3.4]octan-6-yl)methanone]	> 10 µM
